Measured values as given in US20250357519A1, “APPLICATIONS OF O2-INSENSITIVE FORMATE DEHYDROGENASE” (UNIVERSITY OF MARYLAND, BALTIMORE, priority 2022, published 2025).
Like-named read-outs stand apart in the source and are kept apart here.

Legend:
[1] = tested on: Desulfovibrio alaskensis (Da) W-FDH1, wild-type natively-purified (W-FDH1^WT); settings: pH 8.0, 37 °C, 7.5 mM BV, 35 nM enzyme; Mota (2011); cited from earlier work
[2] = tested on: Desulfovibrio vulgaris Hildenborough (DvH) W-FDH1, wild-type natively-purified (W-FDH1^WT), large subunit DVU0587 SEQ ID NO: 29, small subunit DVU0588 SEQ ID …; settings: pH 7.6, RT, 2 mM BV, cited from earlier work
[3] = tested on: Desulfovibrio vulgaris Hildenborough (DvH) FDH2, wild-type natively-purified (FDH2^WT), large subunit DVU2482 SEQ ID NO: 31, small subunit DVU2481 SEQ ID NO: …; settings: cited from earlier work
[4] = tested on: Desulfovibrio desulfuricans (Dd) Mo-FDH3, wild-type natively-purified (Mo-FDH3^WT); settings: cited from earlier work
[5] = target: T1, Desulfovibrio vulgaris Hildenborough (DvH) FDH2, recombinant Strep-tag II-tagged (FDH2^Rec), large subunit DVU2482 SEQ ID NO: 31, small subunit DVU2481 SEQ ID N (Nitratidesulfovibrio vulgaris, UniProt Q728X0); test: PES/DCPIP assay of formate oxidation
T1 sequence (Q728X0 36-1003): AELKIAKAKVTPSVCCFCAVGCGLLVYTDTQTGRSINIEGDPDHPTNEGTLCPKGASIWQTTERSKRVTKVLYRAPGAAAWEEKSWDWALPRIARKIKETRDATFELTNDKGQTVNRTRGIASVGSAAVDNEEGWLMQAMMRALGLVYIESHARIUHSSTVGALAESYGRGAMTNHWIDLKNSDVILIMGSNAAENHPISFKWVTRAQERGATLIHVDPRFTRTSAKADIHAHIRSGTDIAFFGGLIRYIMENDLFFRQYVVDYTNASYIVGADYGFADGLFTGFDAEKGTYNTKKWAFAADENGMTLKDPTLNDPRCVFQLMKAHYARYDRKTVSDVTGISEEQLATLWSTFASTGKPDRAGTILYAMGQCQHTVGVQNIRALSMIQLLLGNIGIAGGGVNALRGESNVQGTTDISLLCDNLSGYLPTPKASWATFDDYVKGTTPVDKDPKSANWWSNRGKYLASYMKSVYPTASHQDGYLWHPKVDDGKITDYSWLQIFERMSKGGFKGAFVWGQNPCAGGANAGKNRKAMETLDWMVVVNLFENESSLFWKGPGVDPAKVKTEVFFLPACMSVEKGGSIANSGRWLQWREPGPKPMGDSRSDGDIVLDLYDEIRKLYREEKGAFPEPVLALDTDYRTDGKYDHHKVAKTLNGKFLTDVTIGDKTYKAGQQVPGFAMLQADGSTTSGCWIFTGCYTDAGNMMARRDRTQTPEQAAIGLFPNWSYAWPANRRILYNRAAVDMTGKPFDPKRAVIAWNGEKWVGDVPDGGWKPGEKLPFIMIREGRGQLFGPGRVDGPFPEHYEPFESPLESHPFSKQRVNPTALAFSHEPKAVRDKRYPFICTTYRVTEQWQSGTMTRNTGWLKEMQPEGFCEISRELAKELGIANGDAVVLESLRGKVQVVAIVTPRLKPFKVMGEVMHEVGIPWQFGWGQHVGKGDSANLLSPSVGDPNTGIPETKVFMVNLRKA
T1 sequence (Q728X1 1-260 partner): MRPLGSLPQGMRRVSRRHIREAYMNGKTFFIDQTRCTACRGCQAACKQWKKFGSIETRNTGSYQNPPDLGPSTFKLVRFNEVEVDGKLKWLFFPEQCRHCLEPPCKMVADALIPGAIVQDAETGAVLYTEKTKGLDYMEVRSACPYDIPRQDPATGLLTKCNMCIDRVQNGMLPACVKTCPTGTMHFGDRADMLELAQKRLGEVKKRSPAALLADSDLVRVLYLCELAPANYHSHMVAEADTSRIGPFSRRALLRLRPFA

[6] = 0.0124 nM enzyme, Da Silva et al (2011)
[7] = BV (2 mM), anaerobic, 1 replicate, da Silva et al (2011), Table 4
[8] = pH 7.6, RT, 2 mM BV, 0.48 nM enzyme, Da Silva et al (2011)
[9] = pH 7.6, 37 °C, 7.5 mM BV, 35 nM enzyme, Rivas et al (2007)
[10] = pH 8.0, 22 °C, 5 mM BV, 1 nM enzyme, Maia et al (2016)
[11] = pH 8.0, 37 °C, 7.5 mM BV, 35 nM enzyme, Mota (2011)

SMILES: O=CO [formate]
- Km [1]: 10 µM
- kcat [1]: 241 s⁻¹
- Km [2, 6]: 1 µM
- kcat [2, 6]: 3684 s⁻¹
- kcat ([2]; 1.4 nM enzyme, Oliveira et al (2020)): 1104 ± 62 s⁻¹
- Km [3, 7]: 4 µM
- kcat [3, 7]: 81 s⁻¹
- Km [3, 8]: 4 µM
- kcat [3, 8]: 81 s⁻¹
- Km [4, 9]: 65 ± 8 µM
- kcat [4, 9]: 357 ± 18 s⁻¹
- Km [4, 10]: 57 µM
- kcat [4, 10]: 543 s⁻¹
- Km [4, 11]: 64 µM
- kcat [4, 11]: 347 s⁻¹
- kcat ([5]; DCPIP (air), full progress curve global fit): 354 ± 5 s⁻¹
- kcat ([5]; DCPIP (anaerobic), full progress curve global fit): 258 ± 3 s⁻¹
- kcat ([5]; PES/DCPIP, air, initial velocities, 10 replicates, pH 8.0): 317 ± 14 s⁻¹
- TN (kcat) relative to that obtained with 2 mM BV ([5]; PES/DCPIP, anaerobic full-progress curves vs 2 mM BV): ~5 fold
- kcat ([5]; PES/DCPIP, anaerobic, initial velocities, 5 replicates, pH 8.0): 220 ± 5 s⁻¹
- TN (kcat) for formate oxidation relative to Mo-Cys-FDH from Rhodobacter capsulatus ([5]; PES/DCPIP, comparator with NAD^+ as acceptor (ref 40)): roughly an order of magnitude
- binding constant (Km) for formate ([5]; general statement, 1.6 nM enzyme, formate 0 to 100 μM): low micromolar range
